Assay results reported in the supplement of paper PMC8253809.

Key:
[1] = test system: DIPGX37 (H3.3 K27M diffuse intrinsic pontine glioma line); experiment: EC50 (inflection of fitted growth-inhibition curve) (log10 M)
Outline: (§1)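 Treatment used a pin tool and a 10-point threefold dilution series, mean top concentration 35 μM, run in triplicate on patient-derived pHGG/DIPG cell lines and astrocyte controls in 1% Geltrex-coated 384-well plates. Plates were kept at 37 °C, 5% CO2 for 7 days (iAstro: 3 days). Log2-transformed CellTiter-Glo luminescence was scaled per plate to % activity between negative (solvent) and positive control wells and pooled before fitting. EC50 and maximal response (yFin) came from the three- or four-parameter log-logistic fit chosen by lowest AICc.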

[2] = test system: HGGX6 (H3.3 G34R paediatric high-grade glioma line); experiment: as above
Outline: as §1

[3] = test system: HGGX39 (paediatric high-grade glioma line); experiment: as above
Outline: as §1

[4] = test system: DIPGX29 (H3.3 K27M diffuse intrinsic pontine glioma line); experiment: as above
Outline: as §1

[5] = test system: DIPGX37; experiment: area under dose-response curve of % growth inhibition (log2 RLU vs DMSO / staurosporine), 1e-11 to 1e-4 M (% x log10 M); higher = more growth inhibition
Outline: (§2)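 Patient-derived pHGG/DIPG cell lines and astrocytes were plated in 384-well plates coated with 1% Geltrex and treated in triplicate with a 10-point threefold dilution series whose mean top concentration was 35 μM, for 7 days (3 days for iAstro) at 37 °C and 5% CO2. CellTiter-Glo luminescence was log2-transformed and scaled on each plate to % activity between solvent and positive controls. Area under the curve came from the trapezoid rule applied to a fitted log-logistic curve, or to a smoothing spline where the sigmoid fit failed.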

[6] = test system: HGGX6; experiment: as above
Outline: as §2

[7] = test system: HGGX39; experiment: as above
Outline: as §2

[8] = test system: DIPGX29; experiment: as above
Outline: as §2

[9] = test system: DIPGX37; experiment: maximal growth inhibition (yFin) relative to DMSO / staurosporine; higher = more efficacious
Outline: as §1

[10] = test system: HGGX6; experiment: as above
Outline: as §1

[11] = test system: HGGX39; experiment: as above
Outline: as §1

[12] = test system: DIPGX29; experiment: as above
Outline: as §1

Row | SMILES | EC50 (log10 M) [1] | EC50 (log10 M) [2] | EC50 (log10 M) [3] | EC50 (log10 M) [4] | area under dose-response curve [5] | area under dose-response curve [6] | area under dose-response curve [7] | area under dose-response curve [8] | maximal growth inhibition [9] | maximal growth inhibition [10] | maximal growth inhibition [11] | maximal growth inhibition [12]
1 | CCCCc1oc2ccccc2c1C(=O)c1cc(I)c(OCCN(CC)CC)c(I)c1 [AMIODARONE] | -4.76 | -4.8 | -4.83 | -4.79 | 63.2 | 63 | 74.6 | 63.6 | 83% | 78.8% | 89.3% | 80%
2 | CCOC(=O)C1=C(COCCN)NC(C)=C(C(=O)OC)C1c1ccccc1Cl (configuration not stated) [AMLODIPINE] | -4.82 | -4.75 | -4.83 | -4.86 | 72.4 | 64.5 | 75.8 | 69.2 | 88% | 85.6% | 91.4% | 80.4%
3 | CCC(C)(C)c1ccc(CC(C)CN2C[C@@H](C)O[C@@H](C)C2)cc1 (some centres not stated) [AMOROLFINE] | -5.29 | -5.36 | -5.11 | -5.09 | 62.1 | 58.4 | 103 | 47.6 | 48% | 41.6% | 72.1% | 33.2%
4 | C[C@@H](O[C@H]1OCCN(Cc2n[nH]c(=O)[nH]2)[C@H]1c1ccc(F)cc1)c1cc(C(F)(F)F)cc(C(F)(F)F)c1 [APREPITANT] | -4.81 | -4.81 | -4.81 | -4.8 | 66.2 | 58.5 | 64.5 | 76.6 | 81.7% | 72.7% | 80% | 85.5%
5 | CC[C@H](CC#N)OC(=O)N[C@@H](C)c1cccc(NC(=O)Nc2ccc(-c3cnco3)c(OC)c2)c1 [AVN-944] | -6.4 | -5.95 | -5.67 | -6.32 | 84.4 | 48 | 54.3 | 79.5 | 35.2% | 27.9% | 39.3% | 34.3%
6 | O=C1COc2c(CCNCCN(C(=O)CCNCCc3ccc(Cl)c(Cl)c3)C3CCCCC3)ccc(O)c2N1 [AZ505] | -4.56 | -4.83 | -4.82 | -4.86 | 33.8 | 61.6 | 49.1 | 70.9 | 60.3% | 74.2% | 61.1% | 82.3%
7 | COc1cc(OC2CCN(C)CC2)ccc1Nc1ncc2c(n1)n(C1CCCC1)c(=O)n2C [AZ3146] | -4.79 | -4.82 | -4.85 | -4.86 | 86.8 | 86.9 | 88.5 | 92.5 | 110% | 96.5% | 105% | 103%
8 | Nc1nc2n[nH]nc2c(=O)[nH]1 [AZAGUANINE-8] | -5.07 | -5.25 | -5.31 | -5.14 | 58.7 | 31.2 | 74.2 | 45 | 53.8% | 25.9% | 54.2% | 38.3%
9 | CC1=C(C(=O)OC(C)C)C(c2cccc([N+](=O)[O-])c2)C(C(=O)OC2CN(C(c3ccccc3)c3ccccc3)C2)=C(N)N1 (configuration not stated) [AZELNIDIPINE] | -4.91 | -4.89 | -4.94 | -4.91 | 83.2 | 80.8 | 93.9 | 74.8 | 86.1% | 91.3% | 99.9% | 81.9%
10 | Cc1c(-c2ccc(O)cc2)n(Cc2ccc(OCCN3CCCCCC3)cc2)c2ccc(O)cc12 [BAZEDOXIFENE] | -4.91 | -4.93 | -5 | -4.97 | 75.4 | 70.5 | 87.8 | 76.7 | 83.5% | 75.9% | 87.3% | 79.1%
11 | CN(C)CCCOc1nn(Cc2ccccc2)c2ccccc12 [BENZYDAMINE] | -5.21 | -5.19 | -5.5 | -5.29 | 105 | 63.8 | 123 | 61.8 | 85.5% | 53.3% | 81.4% | 47.7%
12 | Cc1nnc(C[C@@H]2C=C(c3ccc(Cl)cc3)c3ccccc3-n3c(C)nnc32)o1 [BET-BAY 002] | -6.21 | -5.39 | -5.19 | -5.5 | 58.2 | 35.1 | 42.3 | 29.9 | 26.3% | 27% | 39.7% | 21.8%
13 | CCN1CCN(c2cc(-c3ccc(F)cc3)c3c(n2)CCCCCC3)CC1 [BLONANSERIN] | -4.93 | -4.81 | -4.94 | -5.17 | 73.5 | 64.4 | 81.4 | 63.1 | 77.4% | 79.5% | 85.3% | 53.1%
14 | COc1cc(Nc2c(C#N)cnc3cc(OCCCN4CCN(C)CC4)c(OC)cc23)c(Cl)cc1Cl [BOSUTINIB] | -4.76 | -4.75 | -4.74 | -4.78 | 80.4 | 74.3 | 71.8 | 75.5 | 71.8% | 75.7% | 79.3% | 74.1%
15 | CCOC(=O)Nc1cc(-c2ccc(C)c(NS(C)(=O)=O)c2)nn2c(C)nnc12 [BROMOSPORINE] | -5.23 | -5.51 | -5.01 | -5.25 | 66.5 | 33 | 43.6 | 32.2 | 53.4% | 21.4% | 42.7% | 25.2%
16 | CCCCOc1ccc(CC(=O)NO)cc1 [BUFEXAMAC] | -4.2 | -4.33 | -4.28 | -4.28 | 15.4 | 25.5 | 27.2 | 15.7 | 76.7% | 79.2% | 95.6% | 57.1%
